From ChEMBL document CHEMBL5576037, “Discovery of the first ataxia telangiectasia and Rad3-related (ATR) degraders for cancer treatment” (Eur J Med Chem, 2024) come the findings set out here.

Data set [1] concerns LoVo. The experiment in a line: Antiproliferative activity against ATM deficient human LoVo cells incubated for 72 hrs by CCK8 assay. It counts as functional, cell-based. On the technique in general: Tetrazolium dyes change colour on reduction, which living cells bring about.
For data set [2], the target named is Serine/threonine-protein kinase ATR (Homo sapiens, UniProt Q13535). The experiment in a line: Inhibition of ATR (unknown origin).
Serine/threonine-protein kinase ATR, sequence (Q13535 whole entry, looked up): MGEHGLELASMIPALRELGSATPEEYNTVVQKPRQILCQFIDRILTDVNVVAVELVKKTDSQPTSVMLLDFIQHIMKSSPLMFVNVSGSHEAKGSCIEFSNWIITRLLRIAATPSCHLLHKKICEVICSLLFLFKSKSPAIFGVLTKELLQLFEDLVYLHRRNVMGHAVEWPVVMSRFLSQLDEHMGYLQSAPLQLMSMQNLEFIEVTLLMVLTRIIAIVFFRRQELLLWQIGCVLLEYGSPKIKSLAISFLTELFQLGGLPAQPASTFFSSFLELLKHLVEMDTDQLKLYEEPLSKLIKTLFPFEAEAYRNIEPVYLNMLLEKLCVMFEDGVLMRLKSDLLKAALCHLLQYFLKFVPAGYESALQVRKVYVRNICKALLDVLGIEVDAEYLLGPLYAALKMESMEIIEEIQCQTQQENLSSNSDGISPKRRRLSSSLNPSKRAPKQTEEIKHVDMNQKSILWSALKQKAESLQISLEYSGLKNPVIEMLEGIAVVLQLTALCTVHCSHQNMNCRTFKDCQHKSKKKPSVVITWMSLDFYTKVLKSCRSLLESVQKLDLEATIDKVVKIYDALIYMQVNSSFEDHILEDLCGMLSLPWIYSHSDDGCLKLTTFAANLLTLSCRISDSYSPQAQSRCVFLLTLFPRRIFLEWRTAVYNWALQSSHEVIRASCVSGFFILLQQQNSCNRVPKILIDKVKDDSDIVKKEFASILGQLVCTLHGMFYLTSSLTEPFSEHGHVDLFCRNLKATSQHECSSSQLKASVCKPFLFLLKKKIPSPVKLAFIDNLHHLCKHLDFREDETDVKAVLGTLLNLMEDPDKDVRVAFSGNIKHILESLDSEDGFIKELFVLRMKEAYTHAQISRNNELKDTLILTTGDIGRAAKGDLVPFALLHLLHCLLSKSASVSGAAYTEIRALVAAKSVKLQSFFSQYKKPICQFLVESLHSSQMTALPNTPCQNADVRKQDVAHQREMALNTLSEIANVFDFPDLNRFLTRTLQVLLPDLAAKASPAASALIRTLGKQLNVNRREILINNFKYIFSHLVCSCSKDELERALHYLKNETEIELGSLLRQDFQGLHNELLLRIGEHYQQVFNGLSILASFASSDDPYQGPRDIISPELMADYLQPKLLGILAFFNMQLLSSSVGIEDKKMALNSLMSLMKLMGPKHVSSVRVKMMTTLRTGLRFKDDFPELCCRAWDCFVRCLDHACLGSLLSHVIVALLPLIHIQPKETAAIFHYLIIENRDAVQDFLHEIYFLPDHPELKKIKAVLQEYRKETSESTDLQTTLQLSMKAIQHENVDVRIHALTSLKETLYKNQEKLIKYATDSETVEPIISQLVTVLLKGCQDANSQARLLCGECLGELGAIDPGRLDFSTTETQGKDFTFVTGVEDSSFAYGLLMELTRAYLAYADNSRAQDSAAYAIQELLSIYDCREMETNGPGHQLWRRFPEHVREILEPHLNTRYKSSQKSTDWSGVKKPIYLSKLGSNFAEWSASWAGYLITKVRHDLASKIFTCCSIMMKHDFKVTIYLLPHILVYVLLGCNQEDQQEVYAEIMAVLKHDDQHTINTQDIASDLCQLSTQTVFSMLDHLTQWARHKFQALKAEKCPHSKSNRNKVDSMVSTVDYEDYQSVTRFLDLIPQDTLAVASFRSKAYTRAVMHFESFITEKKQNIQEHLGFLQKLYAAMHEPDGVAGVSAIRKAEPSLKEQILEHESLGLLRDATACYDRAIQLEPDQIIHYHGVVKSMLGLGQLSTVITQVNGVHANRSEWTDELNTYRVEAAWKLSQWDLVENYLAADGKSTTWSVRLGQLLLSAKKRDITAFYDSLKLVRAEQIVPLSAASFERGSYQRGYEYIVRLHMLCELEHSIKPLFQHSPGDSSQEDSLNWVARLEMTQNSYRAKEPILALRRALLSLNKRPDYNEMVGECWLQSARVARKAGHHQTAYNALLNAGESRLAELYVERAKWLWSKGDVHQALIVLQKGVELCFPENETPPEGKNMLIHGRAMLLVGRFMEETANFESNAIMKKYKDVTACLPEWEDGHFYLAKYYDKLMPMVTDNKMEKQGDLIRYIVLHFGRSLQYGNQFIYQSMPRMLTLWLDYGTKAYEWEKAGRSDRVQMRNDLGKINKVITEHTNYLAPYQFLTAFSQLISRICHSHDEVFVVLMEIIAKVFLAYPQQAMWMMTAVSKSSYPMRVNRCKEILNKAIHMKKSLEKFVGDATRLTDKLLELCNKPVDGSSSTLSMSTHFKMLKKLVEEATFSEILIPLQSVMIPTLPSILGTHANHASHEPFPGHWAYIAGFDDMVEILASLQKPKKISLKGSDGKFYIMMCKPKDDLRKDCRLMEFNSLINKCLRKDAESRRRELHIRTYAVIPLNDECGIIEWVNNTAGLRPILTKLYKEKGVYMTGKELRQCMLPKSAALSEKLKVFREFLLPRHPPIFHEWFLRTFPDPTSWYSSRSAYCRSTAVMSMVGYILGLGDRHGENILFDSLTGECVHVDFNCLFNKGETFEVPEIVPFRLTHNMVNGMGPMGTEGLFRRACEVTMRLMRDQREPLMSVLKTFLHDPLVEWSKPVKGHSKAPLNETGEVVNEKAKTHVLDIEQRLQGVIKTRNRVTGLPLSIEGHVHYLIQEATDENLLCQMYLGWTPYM
Data set [3] addresses T1, ATPase family gene 2 protein homolog B (Homo sapiens) (UniProt Q9BVQ7).
T1 sequence (whole entry): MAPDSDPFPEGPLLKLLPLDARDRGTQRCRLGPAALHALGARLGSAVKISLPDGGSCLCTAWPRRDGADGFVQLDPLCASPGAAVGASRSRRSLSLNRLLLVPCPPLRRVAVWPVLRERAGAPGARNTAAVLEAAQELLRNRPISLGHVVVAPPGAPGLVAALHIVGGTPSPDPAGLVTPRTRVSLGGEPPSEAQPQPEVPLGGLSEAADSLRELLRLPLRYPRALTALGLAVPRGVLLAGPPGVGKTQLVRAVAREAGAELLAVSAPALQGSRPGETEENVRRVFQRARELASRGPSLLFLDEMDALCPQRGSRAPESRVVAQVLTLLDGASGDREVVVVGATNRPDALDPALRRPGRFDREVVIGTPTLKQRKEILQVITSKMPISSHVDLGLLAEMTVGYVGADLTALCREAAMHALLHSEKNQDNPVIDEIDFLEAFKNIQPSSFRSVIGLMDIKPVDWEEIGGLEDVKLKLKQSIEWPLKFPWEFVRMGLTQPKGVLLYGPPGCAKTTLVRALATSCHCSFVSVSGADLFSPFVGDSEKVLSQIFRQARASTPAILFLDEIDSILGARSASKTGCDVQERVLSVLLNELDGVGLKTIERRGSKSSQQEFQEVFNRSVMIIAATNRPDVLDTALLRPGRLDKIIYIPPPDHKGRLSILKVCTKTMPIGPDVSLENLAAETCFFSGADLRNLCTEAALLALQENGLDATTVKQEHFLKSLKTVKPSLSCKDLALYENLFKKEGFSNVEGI
Kind of data set: Induction of SPATA5L1 degradation in human LoVo cells at 1 uM incubated for 24 hrs by global proteomic profiling analysis. It counts as cell-based.

Data set [4] deals with Protein cereblon/Serine/threonine-protein kinase ATR (Homo sapiens, UniProt Q13535+Q96SW2). The experiment in a line: PROTAC activity at CRBN/ATR in human LoVo cells assessed as induction of ATR degradation at 2.5 uM preincubated for 36 hrs followed by compound washout and measured after 12 to 48 hrs by Western blot analysis. The data set is classed as cell-based. For orientation: In western blotting, separated proteins are transferred to a membrane and probed.
Protein cereblon/Serine/threonine-protein kinase ATR, sequence (Q13535 whole entry, looked up): as the sequence (Q13535 whole entry, looked up) above
Protein cereblon/Serine/threonine-protein kinase ATR, sequence (Q96SW2 whole entry, looked up): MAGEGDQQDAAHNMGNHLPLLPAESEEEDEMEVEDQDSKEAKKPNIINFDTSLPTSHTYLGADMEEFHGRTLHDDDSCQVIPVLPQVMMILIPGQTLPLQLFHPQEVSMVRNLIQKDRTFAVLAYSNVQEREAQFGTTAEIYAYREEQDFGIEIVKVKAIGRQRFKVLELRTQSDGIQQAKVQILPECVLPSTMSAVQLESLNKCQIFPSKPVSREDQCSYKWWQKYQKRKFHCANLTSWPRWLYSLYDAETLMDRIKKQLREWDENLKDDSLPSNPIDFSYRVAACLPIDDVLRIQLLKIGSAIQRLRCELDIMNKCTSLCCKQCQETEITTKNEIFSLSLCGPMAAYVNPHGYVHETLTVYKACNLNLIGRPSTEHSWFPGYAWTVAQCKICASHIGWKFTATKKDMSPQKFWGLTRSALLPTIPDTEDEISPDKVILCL

The target in data set [5] is T2, Serine/threonine-protein kinase Chk1 (Homo sapiens) (UniProt O14757).
T2 sequence (whole entry): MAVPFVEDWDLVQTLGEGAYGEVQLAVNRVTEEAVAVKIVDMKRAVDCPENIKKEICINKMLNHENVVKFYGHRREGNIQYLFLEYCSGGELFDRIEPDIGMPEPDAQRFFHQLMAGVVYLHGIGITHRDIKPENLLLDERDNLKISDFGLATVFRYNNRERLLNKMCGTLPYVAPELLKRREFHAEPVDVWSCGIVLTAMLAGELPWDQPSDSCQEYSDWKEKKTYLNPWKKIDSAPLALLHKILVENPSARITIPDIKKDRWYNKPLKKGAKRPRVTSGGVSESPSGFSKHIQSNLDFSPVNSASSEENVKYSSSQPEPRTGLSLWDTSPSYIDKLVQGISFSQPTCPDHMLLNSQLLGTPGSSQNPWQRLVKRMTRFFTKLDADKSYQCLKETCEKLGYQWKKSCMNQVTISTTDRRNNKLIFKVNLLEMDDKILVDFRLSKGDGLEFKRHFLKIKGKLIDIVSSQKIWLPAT
The experiment in a line: Inhibition of CHK1 phosphorylation at Ser345 residue in human LoVo cells incubated for 72 hrs by Western blot analysis. It counts as cell-based. The conditions noted are these: dose 0.16-10 µM.

The subject of data set [6] is LoVo. Kind of data set: Induction of DNA damage in human LoVo cells assessed as increase in gammaH2AX expression at 0.5 to 1 uM incubated for 72 hrs by DAPI staining based immunofluorescence analysis. The conditions noted are these: dose 0.5-1 µM. It counts as functional, cell-based.
In data set [7] the test system is LoVo. Kind of data set: Induction of apoptosis in human LoVo cells assessed as apoptotic rate at 1 uM incubated for 48 hrs by Annexin V-FITC/PI staining based flow cytometric analysis (reference value: 5.32 %). The data set is classed as functional.
In data set [8] the test system is LoVo. The experiment in a line: Induction of apoptosis in human LoVo cells assessed as apoptotic rate at 0.5 uM incubated for 48 hrs by Annexin V-FITC/PI staining based flow cytometric analysis (reference value: 5.32 %). It counts as functional. Background: A flow cytometer gives signals particle by particle.
Data set [9] concerns LoVo. Kind of data set: Cell cycle arrest in human LoVo cells assessed as accumulation of cells at G0/G1 phase at 1 uM incubated for 72 hrs by PI staining based flow cytometric analysis (reference value: 52.3 %). It counts as functional.
For data set [10], the system named is LoVo. Kind of data set: Cell cycle arrest in human LoVo cells assessed as accumulation of cells at S phase at 1 uM incubated for 72 hrs by PI staining based flow cytometric analysis (reference value: 25.5 %). It counts as functional.
Data set [11] relates to LoVo. Kind of data set: Cell cycle arrest in human LoVo cells assessed as accumulation of cells at G2/M phase at 1 uM incubated for 72 hrs by PI staining based flow cytometric analysis (reference value: 22.2 %). It counts as functional.
Data set [12] has as its system LoVo. The experiment in a line: Cell cycle arrest in human LoVo cells assessed as accumulation of cells at G0/G1 phase at 0.5 uM incubated for 72 hrs by PI staining based flow cytometric analysis (reference value: 52.3 %). The data set is classed as functional.
Data set [13] has as its system LoVo. Kind of data set: Cell cycle arrest in human LoVo cells assessed as accumulation of cells at S phase at 0.5 uM incubated for 72 hrs by PI staining based flow cytometric analysis (reference value: 25.5 %). The data set is classed as functional.
Data set [14] in a line: AUC (0 to infinity) in BALB/c nude mouse xenografted with human LoVo cells at 25 mg/kg, ip administered as single dose and measured after 12 hrs by LC-MS/MS analysis. It counts as ADME, organism-based. The conditions noted are these: in vivo.
The nature of data set [15]: MRT (0 to t) in BALB/c nude mouse xenografted with human LoVo cells at 25 mg/kg, ip administered as single dose and measured after 12 hrs by LC-MS/MS analysis. The data set is classed as ADME, organism-based. The conditions noted are these: in vivo.
In data set [16] the test system is LoVo. Kind of data set: Antitumor activity against human LoVo cells xenografted in BALB/c nude mouse assessed as tumor growth inhibition at 25 mg/kg, ip administered […] for 15 days relative to control. The conditions noted are these: 360 h, time 15 day, read-out: TGI. The data set is classed as functional.
Data set [17] concerns LoVo. The experiment in a line: Antitumor activity against human LoVo cells xenografted in BALB/c nude mouse assessed as induction of DNA damage by measuring increase in gammaH2AX protein level. It counts as functional, cell-based.
Data set [18] is described as follows: Toxicity in BALB/c nude mouse xenografted with human LoVo cells assessed as effect on lung at 12.5 to 25 mg/kg, ip administered twice daily for 15 days by H and E staining based analysis. It counts as organism-based. The conditions noted are these: in vivo, 360 h, dose 12.5-25 mg/kg, time 15 day.
Data set [19] is described as follows: Toxicity in BALB/c nude mouse xenografted with human LoVo cells assessed as effect on kidney at 12.5 to 25 mg/kg, ip administered twice daily for 15 days by H and E staining based analysis. It counts as organism-based. The conditions noted are these: in vivo, 360 h, dose 12.5-25 mg/kg, time 15 day.
Data set [20] can be described thus: Toxicity in BALB/c nude mouse xenografted with human LoVo cells assessed as body weight loss at 12.5 mg/kg, ip administered once daily for 15 days in presence of cisplatin. The data set is classed as organism-based. The conditions noted are these: in vivo, 360 h, time 15 day.

pIC50: −log10 of the molar value. Active and inactive are the calls of the source. The rule behind the calls is not given here.

Turning to `C[C@@H]1COCCN1c1cc(C2([S@@](C)(=O)=NC(=O)CCc3cn(CCCCCCCC(=O)Nc4cccc5c4C(=O)N(C4CCC(=O)NC4=O)C5=O)nn3)CC2)nc(-c2ccnc3[nH]ccc23)n1` (stereo not given in full), the pIC50 (usually the negative decadic logarithm of the IC50, by convention in mol/L) with LoVo [1] is 6.33. In addition, the inhibition result in data set [2] is “Active”. Moreover, the result (in data set [3]; in data set [4]; in the data set with LoVo [6]; in the data set on LoVo [17]) was Active. Further, in [5], the inhibition result is “Dose-Dependent Effect”. In addition, the Activity with LoVo [7] was found to be 45.62%; in the data set with LoVo [8], 23.91%; in the data set on LoVo [9] it was 67.3%; in the data set with LoVo [10], 19.3%; in the data set with LoVo [11], 13.4%; with LoVo [12], 57.9%. For the same molecule, the Activity with LoVo [13] is listed as 22.4%; in data set [18], “Non-Toxic”; in [19], “Non-Toxic”; in data set [20], “Non-Toxic”. Further, the AUC(0-inf) (as a rule, total exposure, with the tail of the curve extrapolated) in [14] came to 4070 ng·h/mL. For the same molecule, the MRT last (in general, a mean duration of stay, worked out from the concentration-time curve) at 12 h in data set [15] worked out at 4.21 h. Further, the inhibition in vivo at 25 mg/kg with LoVo [16] stood at 51.8%.
